Patent publication US8003686B2, “Aryl derivatives of curcumin, demethoxycurcumin, bisdemethoxycurcumin or curcuminisoxazolide and their use as animal feed additives” (DSM IP Assets B.V., priority 2005, dated 2011)

Tests used:
Assay in all cases: Inhibition of bacterial growth in broth culture, CFU counting
Assay type in all cases: cell-based
[1] = tested on: Lactobacillus salivarius (I); settings: 1000 μM; Lactobacillus salivarius from pig gastrointestinal content; counting after 24 hours at 37° C.
Description: (§1) The following bacteria were isolated from pig gastrointestinal content: Escherichia coli 0.94 (A), Escherichia coli 0.96 (B), Klebsiella pneumoniae (C), Salmonella typhimurium pF3127 (D), Salmonella enteritidis pF1338 (E), Enterococcus faecalis (F), Enterococcus faecium (G), Staphylococcus hyicus (H), Lactobacillus salivarius (I) and Lactobacillus acidophilus 3 (J). Their identities were confirmed by microscopic examination after gram staining and biochemical testing using the appropriate API system. Test strains were maintained in tryptic soy broth (named BTS; […] Overnight cultures of the test organisms were diluted in tryptic soy broth to the final concentration used for inoculation of the assay. Pure bacteria were counted on tryptic soy agar (Merck, Darmstadt, Germany) after aerobical incubation at 37° C. during 24 hours. […] Sterilized nutrient broth was prepared using tryptic soy broth (Merck, Darmstadt, Germany), and 4.4 ml of it was added to each test tube. 500 μl of each of the dilutions and 100 μl of bacteria, diluted to the appropriate inoculum size (2×10^4 to 10^5 CFU/ml), was added to the test tubes. […] Becton […], France). The final concentration of each derivative was […]. The tubes and the microtiter plates were incubated during 24 to 48 hours (depending of the bacteria tested) at 37° C. and under agitation. Inhibition of growth was determined by bacterial counting after 24 hours of incubation. […] All bacterial counts were realized with two replicate plates. In general, each assay was performed in two replicates. The reduction of bacterial growth was determined by subtracting the number of the bacteria of the test culture after 24 hours from the number of bacteria of the control culture. The colonies developed after incubation were counted, and the inhibitory effect was calculated according to Rico-Munoz and Davidson, J.

[2] = tested on: Escherichia coli 0.94 (A); settings: 1000 μM; Escherichia coli 0.94 from pig gastrointestinal content; counting after 24 hours at 37° C.
Description: as §1

[3] = tested on: Staphylococcus hyicus (H); settings: 1000 μM; Staphylococcus hyicus from pig gastrointestinal content; counting after 24 hours at 37° C.
Description: as §1

[4] = tested on: Salmonella typhimurium pF3127 (D); settings: 1000 μM; Salmonella typhimurium pF3127 from pig gastrointestinal content; counting after 24 hours at 37° C.
Description: as §1

[5] = tested on: Klebsiella pneumoniae (C); settings: 1000 μM; Klebsiella pneumoniae from pig gastrointestinal content; counting after 24 hours at 37° C.
Description: as §1

[6] = tested on: Salmonella enteritidis pF1338 (E); settings: 1000 μM; Salmonella enteritidis pF1338 from pig gastrointestinal content; counting after 24 hours at 37° C.
Description: as §1

[7] = tested on: Enterococcus faecalis (F); settings: 1000 μM; Enterococcus faecalis from pig gastrointestinal content; counting after 24 hours at 37° C.
Description: as §1

[8] = tested on: Escherichia coli 0.96 (B); settings: 1000 μM; Escherichia coli 0.96 from pig gastrointestinal content; counting after 24 hours at 37° C.
Description: as §1

[9] = tested on: Enterococcus faecium (G); settings: 1000 μM; Enterococcus faecium from pig gastrointestinal content; counting after 24 hours at 37° C.
Description: as §1

Substance: curcumindipalmitate [Example 1]
- Percentage of inhibition of growth of bacterial strain I [1]: 2%
- Percentage of inhibition of growth of bacterial strain A [2]: 62 ± 0.3%
- Percentage of inhibition of growth of bacterial strain H [3]: −4 ± 42%
- Percentage of inhibition of growth of bacterial strain D [4]: 33 ± 29%
- Percentage of inhibition of growth of bacterial strain C [5]: 12 ± 4%
- Percentage of inhibition of growth of bacterial strain E [6]: 14 ± 13%
- Percentage of inhibition of growth of bacterial strain F [7]: 38 ± 34%
- Percentage of inhibition of growth of bacterial strain B [8]: 59 ± 17%

Substance: Curcumin diphosphate ammonium salt [derivative 2]
- Percentage of inhibition of growth of bacterial strain I [1]: 64 ± 50%
- Percentage of inhibition of growth of bacterial strain A [2]: 35 ± 41%
- Percentage of inhibition of growth of bacterial strain H [3]: 2 ± 7%
- Percentage of inhibition of growth of bacterial strain D [4]: 40 ± 72%
- Percentage of inhibition of growth of bacterial strain C [5]: 25 ± 5%
- Percentage of inhibition of growth of bacterial strain E [6]: 30 ± 34%
- Percentage of inhibition of growth of bacterial strain B [8]: 47 ± 28%
- Percentage of inhibition of growth of bacterial strain G [9]: 13 ± 6%
